Test results reported in ChEMBL document CHEMBL1157536, “Improvement of meta-tetra(hydroxyphenyl)chlorin-like photosensitizer selectivity with folate-based targeted delivery. synthesis and in vivo delivery studies” (J Med Chem, 2008).

Experiments:
Settings in all cases: in vivo
[1] = Ratio of drug uptake in tumor to skin in folate receptor deficient HT29 cells xenografted athymic Swiss nude mouse with folate diet assessed as fluorescence accumulation by UV-visible spectrophotometer; format: ADME, cell-based, HT-29
[2] = Ratio of drug uptake in tumor to skin in human KB cells expressing folate receptor xenografted athymic Swiss nude mouse with folate diet assessed as fluorescence accumulation by UV-visible spectrophotometer; format: ADME, cell-based
[3] = Ratio of drug uptake in tumor to skin in human KB cells expressing folate receptor xenografted athymic Swiss nude mouse with folate free diet assessed as fluorescence accumulation by UV-visible spectrophotometer; format: ADME, cell-based
[4] = Ratio of drug uptake in tumor to skin in folate receptor deficient HT29 cells xenografted athymic Swiss nude mouse with folate free diet assessed as fluorescence accumulation by UV-visible spectrophotometer; format: ADME, cell-based, HT-29

Ratio [1] | Ratio [2] | Ratio [3] | Ratio [4] | SMILES
2.1 | 1.9 | 5 | 1 | Nc1nc(O)c2nc(CNc3ccc(C(=O)NC(CCC(=O)NCCOCCOCCNC(=O)c4ccc(-c5c6nc(c(-c7cccc(O)c7)c7ccc([nH]7)c(-c7cccc(O)c7)c7nc(c(-c8cccc(O)c8)c8ccc5[nH]8)C=C7)CC6)cc4)C(=O)O)cc3)cnc2n1 (stereo not drawn)
1.1 | 2.8 | 2.1 | 3.7 | O=C(O)c1ccc(-c2c3nc(c(-c4cccc(O)c4)c4ccc([nH]4)c(-c4cccc(O)c4)c4nc(c(-c5cccc(O)c5)c5ccc2[nH]5)C=C4)CC3)cc1
